Legend:
Conditions in all cases: 72 h
[1] = system: BV-173
In short: (§1)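 Fifteen myeloid leukaemia cell lines were seeded in RPMI 1640 at a density titrated to the linear growth range. Each line went into 384-well plates with compounds acoustically pre-printed at five tenfold doses from 1 to 10,000 nM, in duplicate, and was incubated for 72 h at 37 °C with 5% CO2. Luminescent ATP viability was normalised to vehicle and to a positive control at 10 µM. The IC50 came from four-parameter log-logistic dose–response fits.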

[2] = system: KG-1
In short: as §1

[3] = system: HL-60
In short: as §1

[4] = system: KCL-22
In short: as §1

[5] = system: Mono-Mac-6
In short: as §1

[6] = system: LAMA-84
In short: as §1

[7] = system: MOLM-13
In short: as §1

[8] = system: KU-812
In short: as §1

[9] = system: NOMO-1
In short: as §1

[10] = system: K-562
In short: as §1

[11] = system: THP-1
In short: as §1

[12] = system: HEL
In short: as §1

[13] = system: MV4-11
In short: as §1

[14] = system: SHI-1
In short: as §1

[15] = system: ML-2
In short: as §1

[16] = system: BV-173; assay: cell viability (% survival relative to DMSO control, bortezomib = 0%); higher = less cytotoxic
In short: (§2)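 Fifteen myeloid leukaemia cell lines (10 AML, 5 CML) were seeded at a density titrated to the linear growth range. They went into 384-well plates with compounds pre-printed at 1, 10, 100, 1000 or 10000 nM in duplicate. After 72 h at 37 °C with 5% CO2, viability was read by CellTiter-Glo luminescence. Values are percent survival, with vehicle set to 100% and a 10 µM positive control to 0%, averaged over the duplicates.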

[17] = system: KG-1; assay: as above
In short: as §2

[18] = system: HL-60; assay: as above
In short: as §2

[19] = system: KCL-22; assay: as above
In short: as §2

[20] = system: Mono-Mac-6; assay: as above
In short: as §2

[21] = system: LAMA-84; assay: as above
In short: as §2

[22] = system: MOLM-13; assay: as above
In short: as §2

[23] = system: KU-812; assay: as above
In short: as §2

[24] = system: NOMO-1; assay: as above
In short: as §2

[25] = system: K-562; assay: as above
In short: as §2

[26] = system: THP-1; assay: as above
In short: as §2

[27] = system: HEL; assay: as above
In short: as §2

[28] = system: MV4-11; assay: as above
In short: as §2

[29] = system: SHI-1; assay: as above
In short: as §2

[30] = system: ML-2; assay: as above
In short: as §2

Cc1c(Cl)cccc1S(=O)(=O)Nc1nc(CC(=O)N2CCN(C)CC2)cs1 [BVT-2733]
Conditions	IC50 (cell viability) [µM]
[1]	> 10
[2]	> 10
[3]	> 10
[4]	> 10
[5]	> 10
[6]	> 10
[7]	> 10
[8]	> 10
[9]	> 10
[10]	> 10
[11]	> 10
[12]	> 10
[13]	> 10
[14]	> 10
[15]	> 10

cell viability [%]
Conditions	1 nM	10 nM	100 nM	1000 nM	10000 nM
[16]	102	103	94.8	93.3	88.5
[17]	102	92.8	94.2	98.2	105
[18]	99.9	93.4	78.9	122	93.5
[19]	114	83.6	97.9	98.2	98.1
[20]	107	88	107	114	99.6
[21]	101	93.4	96.9	105	99.9
[22]	99.7	89.1	97.8	110	96.4
[23]	107	95.4	96.6	95.9	86.4
[24]	105	97.6	99.1	99.1	95.4
[25]	98	83.5	87.1	104	102
[26]	107	91	100	97	92.9
[27]	106	82.9	96.3	108	101
[28]	107	95.1	88.3	108	112
[29]	110	101	105	111	104
[30]	108	91.1	92.6	108	99.6

Cc1cc(C(=O)NNCc2ccccc2)no1 [Isocarboxazid]
Conditions	IC50 (cell viability) [µM]
[1]	> 10
[2]	> 10
[3]	> 10
[4]	> 10
[5]	> 10
[6]	> 10
[7]	> 10
[8]	> 10
[9]	> 10
[10]	> 10
[11]	> 10
[12]	> 10
[13]	> 10
[14]	> 10
[15]	> 10

cell viability [%]
Conditions	1 nM	10 nM	100 nM	1000 nM	10000 nM
[16]	99.1	101	100	117	80.7
[17]	96.5	109	98.5	108	91.1
[18]	107	90.1	106	122	102
[19]	105	91.3	94.3	98.3	65.6
[20]	94.1	102	104	107	80.8
[21]	98.9	97.9	99.7	95.5	95.8
[22]	104	96.3	103	106	96.6
[23]	96.2	99.6	93.8	93.9	100
[24]	105	103	109	112	92
[25]	116	91.5	88.5	99.6	107
[26]	97.8	102	110	97.4	86.7
[27]	112	87.8	111	92.6	103
[28]	107	95	97.5	81.4	80.4
[29]	101	99.9	98.4	99.1	95.2
[30]	95	101	101	90.4	85.4

Cc1c2c(=O)n(-c3ccccc3Cl)[nH]c2cc(=O)n1Cc1ccccn1
Conditions	IC50 (cell viability) [µM]
[1]	> 10
[2]	> 10
[3]	> 10
[4]	> 10
[5]	> 10
[6]	> 10
[7]	2.76
[8]	> 10
[9]	> 10
[10]	6.52
[11]	> 10
[12]	> 10
[13]	7.5
[14]	> 10
[15]	> 10

cell viability [%]
Conditions	1 nM	10 nM	100 nM	1000 nM	10000 nM
[16]	98	104	94.6	95.5	81.4
[17]	92.4	105	89.6	102	104
[18]	71	96.2	94.5	90.8	105
[19]	60.5	119	84.4	94.6	106
[20]	89	109	96	103	99.5
[21]	93.8	108	100	99.9	99.9
[22]	84.7	101	96.7	71.4	38.5
[23]	88	101	92	100	98.1
[24]	102	111	95.8	100	98.3
[25]	109	92.5	89.3	77.7	54
[26]	95.8	113	99.1	94.2	96.6
[27]	77.9	114	88.2	103	106
[28]	101	107	89.7	71.9	59.2
[29]	84.3	103	95.7	80.8	75.9
[30]	86.5	112	95.4	98.6	101

CN(CCOc1ccc(Cc2sc(O)nc2O)cc1)c1ccccn1 [Rosiglitazone]
Conditions	IC50 (cell viability) [µM]
[1]	> 10
[2]	> 10
[3]	> 10
[4]	> 10
[5]	0.0852
[6]	> 10
[7]	> 10
[8]	> 10
[9]	> 10
[10]	> 10
[11]	> 10
[12]	> 10
[13]	> 10
[14]	> 10
[15]	> 10

cell viability [%]
Conditions	1 nM	10 nM	100 nM	1000 nM	10000 nM
[16]	96.7	101	81	97.7	101
[17]	91.4	110	94.3	101	91.2
[18]	97.8	111	107	127	168
[19]	96.4	113	110	94.2	102
[20]	95.9	92.6	54.5	25.2	24.8
[21]	99.3	106	100	95.6	97.4
[22]	107	115	118	130	122
[23]	98.9	111	92.5	95.4	90.3
[24]	109	107	97.8	105	102
[25]	96.6	109	98.5	98.7	85.4
[26]	101	101	88.6	90.6	93.5
[27]	110	110	113	110	91.9
[28]	107	105	105	95	93.5
[29]	102	123	111	116	103
[30]	106	108	95.6	120	115

CCCc1nc(C)c2c(=O)nc(-c3cc(S(=O)(=O)N4CCN(CC)CC4)ccc3OCC)[nH]n12 [Vardenafil]
Conditions	IC50 (cell viability) [µM]
[1]	> 10
[2]	> 10
[3]	> 10
[4]	> 10
[5]	> 10
[6]	> 10
[7]	> 10
[8]	> 10
[9]	> 10
[10]	> 10
[11]	> 10
[12]	> 10
[13]	> 10
[14]	> 10
[15]	> 10

cell viability [%]
Conditions	1 nM	10 nM	100 nM	1000 nM	10000 nM
[16]	98.3	80.3	101	108	82.8
[17]	95.4	95.9	92.8	110	107
[18]	107	115	89.2	112	102
[19]	105	110	98.3	95.8	94.6
[20]	102	83	106	95.1	102
[21]	92.6	95.2	101	92.2	97.8
[22]	107	123	71.2	91.2	94.5
[23]	95.4	106	92	102	102
[24]	94.4	84.3	96.1	101	93.1
[25]	109	107	93.8	90.8	92.6
[26]	93.8	85	107	108	96.5
[27]	91.9	111	94.4	102	93.7
[28]	97.9	87.5	85.2	97.7	93.3
[29]	102	115	89.8	99.7	101
[30]	98.8	96.3	88	97.4	110

C[C@H]1c2cccc(O)c2C(=O)C2C(=O)[C@]3(O)C(=O)C(C(N)=O)C(=O)[C@@H](N(C)C)[C@@H]3[C@@H](O)[C@@H]21 (stereo not given in full) [Doxycycline]
Conditions	IC50 (cell viability) [µM]
[1]	> 10
[2]	> 10
[3]	> 10
[4]	8.54
[5]	> 10
[6]	> 10
[7]	> 10
[8]	> 10
[9]	> 10
[10]	9.29
[11]	> 10
[12]	> 10
[13]	> 10
[14]	> 10
[15]	8.51

cell viability [%]
Conditions	1 nM	10 nM	100 nM	1000 nM	10000 nM
[16]	107	87.9	99.2	102	69.7
[17]	106	91.7	95.9	95.1	87.9
[18]	123	100	118	111	67.4
[19]	130	69.3	93.6	109	41.6
[20]	103	98.6	109	94.7	90.4
[21]	101	95.3	106	92	66.1
[22]	124	114	92.7	104	74.5
[23]	111	88.3	105	102	74.4
[24]	103	92	104	103	90.3
[25]	112	97	97.3	101	46.2
[26]	95	95.9	100	105	106
[27]	120	107	90.5	108	75.3
[28]	110	105	94.2	97	50.9
[29]	111	98	112	105	90.8
[30]	111	103	97.9	90	45.9

— the supplement of paper PMC8671470
